Data reported in patent US20220249435A1, “Applications of Butyrolactone-I in Preparing Medicine for Preventing Neuroinflammation and/or Memory and Cognitive Disorders” (priority 2021, published 2022).

Columns and labels:
Assay type in all cases: in vivo
[1] = test system: AChE; assay: AChE activity in brain tissue of zebrafish; conditions: food with 25, 50, 100 mg/kg for 20 days; AlCl3 intraperitoneally; brain supernatant; FIG. 3B
Description: (§1) 75 zebrafish (3.0±0.4 cm) are randomly classified into control group, AlCl3 model group and 3 experimental groups with 15 zebrafish in each group, zebrafish in the experimental group are fed with food with butyrolactone-I content of 25 mg/kg, 50 mg/kg and 100 mg/kg for 20 days. zebrafish in control group and model group are fed the same amount of normal food respectively. 20 days later, after anesthesia, zebrafish in model group and experimental group are injected with AlCl3 solution (4.2 mg/mL, 5μL, pH=5.0±0.2) intraperitoneally, while zebrafish in the control group are injected with the same amount of normal saline. Memory test is performed in T maze 24 hours after injection.
(§2) 24 hours after the behavior test, the fish are euthanized, and every five fish in each group is a sample. The brain, surrounding tissues and intestines are collected and stored in a refrigerator at −80° C. All samples (except intestinal tract) are homogenized in phosphate buffer solution for further analysis. Centrifuging is conducted at 4° C. for 15 min at 1500 r/min, and the supernatant is collected. The changes of GSH level and AChE activity of tissue biomarkers are detected by using brain supernatant of zebrafish. […] According to OD value, the regression equation of IL-1β and TNF-α standard curves is calculated, and the logistic curve (4 parameters each) is used as a fitting model. […]

[2] = test system: GSH; assay: GSH level in brain tissue of zebrafish; conditions: food with 25, 50, 100 mg/kg for 20 days; AlCl3 intraperitoneally; brain supernatant; FIG. 3A
Description: as §1, §2

[3] = test system: zebrafish; assay: T maze memory test in AlCl3-injected zebrafish
Description: Adult wild AB zebrafish (male: female ratio is 50%: 50%) with good growth of about 6-8 months are acclimated in a 50 L water tank for 2 weeks, the temperature is 25±2° C., the light-dark cycle is 14 hours: 10 hours, and Artemia larvae are fed at 9 am and 2 pm respectively.
as §1
4 days before intraperitoneal injection, 6 fish are randomly selected from each group, and each day, they are trained separately in T maze for 5 minutes to find the eutrophic EC area. […] After 4 days of training, on the 5th day (24 hours after intraperitoneal injection), the behavior of the trained fish is tested in T maze. If the fish enters EC area and stays for more than 30 s, a valid incubation period is recorded. […] The behavioral test is conducted between 10 am and 1 pm. The Microsoft LifeCam Studio 1080p HD camera and powersoft software (Powersoft Co., Ltd., Hong Kong, China) are used to record videos. Supersys software is used to analyze the latent time (s), average swimming speed (cm/s) and the times of entering the EC zone for the first time.

[4] = test system: zebrafish intestinal flora; assay: Intestinal flora of zebrafish by 16S V3-V4 sequencing
Description: as §1
(§3) 24 hours after the behavior test, the fish are euthanized, and every five fish in each group is a sample. The brain, surrounding tissues and intestines are collected and stored in a refrigerator at −80° C. All samples (except intestinal tract) are homogenized in phosphate buffer solution for further analysis. Centrifuging is conducted at 4° C. for 15 min at 1500 r/min, and the supernatant is collected. The changes of GSH level and AChE activity of tissue biomarkers are detected by using brain supernatant of zebrafish. In addition, brain samples and supernatant of peripheral tissues of zebrafish are used to determine the levels of IL-1β and TNF-α. The results are expressed by the activity of AChE per gram of protein and the amount of glutathione per gram of protein. According to OD value, the regression equation of IL-1β and TNF-α standard curves is calculated, and the logistic curve (4 parameters each) is used as a fitting model.
Genomic DNA is extracted from 15 intestinal samples by proteinase K cleavage method, and sent to TinyGene Bio-Tech (ShangHai) Co., Ltd. for sequencing. The selected target gene is 16S V3-V4. According to the requirements of illumina high-throughput sequencing, two-way sequencing is carried out, and the target region and the fusion primer with “5′ linker-barcode-sequencing primer-specific primer-3′” are designed. The fusion primer comprises the following primers: […]
The library is constructed by a two-step PCR amplification method. First, specific primers (hereinafter described as inner primers) are used to amplify the target fragments, and then gel recovery is carried out on the target fragments. Then, the recovered products are used as templates for secondary PCR amplification (hereinafter described as outer primers for amplification). The purpose of amplification is to add the linker, sequencing primer and barcode needed by illumina platform sequencing to both ends of the target fragment.
AxyPrepDNA gel recovery kit is used for recovery, FTC-3000™ real-time PCR is used for real-time fluorescence quantification, and then Illumina high-throughput sequencing and bioinformatics analysis are performed. The length of the sequence is 450 bp, and the sequencing result is the original data, and quality of the sequence is evaluated and optimized. Trimmomatic is used for sequence filtering and FLASH for jointing. Then ambiguity, homology and some chimeras generated in PCR are screened by motherur V. 1.39.5, and the optimized sequence for subsequent clustering OTU (operational taxonomic unit) and species information analysis is obtained. Using the software USEARCH, the jointed sequences are clustered into OTU (at 97% similarity level) for later analysis.
VENN diagram may be used to count the number of common and unique OTU in multiple samples, and may intuitively show the similarity and overlap of OTU numbers of environmental samples. Usually the OTU sample table with a similar level of 97% is selected for analysis.
Alpha diversity analysis reflects the richness and diversity of communities in the sample, using motheru (http://www.mothur.org/wiki/Schloss SOP#Alpha diversity) to calculate shannon, simpson, chao and ace indices, and using R (3.4.1) language tool to make charts. […]

[5] = test system: TNF-α; assay: Level of inflammatory factor TNF-α in brain tissues of zebrafish; conditions: AlCl3 model, FIGS. 3E-3F
Description: as §1, §2

[6] = test system: IL-1β; assay: Level of inflammatory factor IL-1β in brain and peripheral tissues of zebrafish
Description: as §1, §3
Graphpad Prism 8.0 is used for mapping, and One-way ANOVA and Dunnett's post hoc test are used to evaluate the differences between model group and control group, experimental group and model group.

[7] = phylum level, oral, AlCl3 model

COC(=O)[C@@]1(Cc2ccc(O)c(CC=C(C)C)c2)OC(=O)C(O)=C1c1ccc(O)cc1 [butyrolactone-I]
AChE activity in brain tissue of zebrafish [1]: inhibit AChE activity
GSH level in brain tissue of zebrafish [2]: increase GSH level in brain tissue of zebrafish in a dose-dependent manner
latent time for zebrafish to find the EC zone ([3]; food with 25, 50, 100 mg/kg butyrolactone-I for 20 days, AlCl3 intraperitoneally, T maze 24 hours after injection, FIG. 1A): shorten the latent time
average swimming speed of zebrafish ([3]; food with 25, 50, 100 mg/kg for 20 days, AlCl3 intraperitoneally, T maze, FIG. 1B): increase the average swimming speed
number of times that zebrafish enter the eutrophic EC zone ([3]; food with 25, 50, 100 mg/kg for 20 days, AlCl3 intraperitoneally, T maze, FIG. 1C): add the number of times
lingering time of zebrafish in EC area ([3]; food with 25, 50, 100 mg/kg for 20 days, AlCl3 intraperitoneally, T maze, FIGS. 2A-2E): prolong the lingering time
memory and cognitive disorder of zebrafish caused by aluminum trichloride ([3]; overall conclusion of T maze test): obviously improve
abundance of Alpinimonas ([4]; genus level, oral, AlCl3 model): down-regulate
abundance of Bacillus ([4]; genus level, oral, AlCl3 model): up-regulate
abundance of Bosea ([4]; genus level, oral, AlCl3 model): down-regulate
abundance of Cetobacterium ([4]; genus level, oral, AlCl3 model): down-regulate
abundance of Mycobacterium ([4]; genus level, oral, AlCl3 model): down-regulate
abundance of Phreatobacter ([4]; genus level, oral, AlCl3 model): down-regulate
abundance of Singulisphaera ([4]; genus level, oral, AlCl3 model): down-regulate
disturbance of zebrafish intestinal flora caused by aluminum trichloride ([4]; overall conclusion): regulate the disturbance
abundance of Chlamydiae [4, 7]: down-regulate
abundance of Chloroflexi [4, 7]: down-regulate
abundance of Fusobacterium [4, 7]: down-regulate
abundance of Planctomycetes [4, 7]: down-regulate
abundance of Phylum Firmicutes ([4]; phylum level, oral, AlCl3 model, FIGS. 4A-4B): up-regulate
level of inflammatory factor TNF-α in brain tissues of zebrafish [5]: reduce the level
level of inflammatory factor IL-1β in the brain of zebrafish ([6]; brain, AlCl3 model, FIG. 3C): reduce the level
nerve inflammation of zebrafish caused by aluminum trichloride ([6]; overall conclusion of biochemical indexes): obviously improve
level of inflammatory factor IL-1β in peripheral tissues of zebrafish ([6]; peripheral tissues, AlCl3 model, FIG. 3D): reduce the level
